Measured values reported in US20120231141A1, “BITTERNESS-IMPROVING AGENT FOR BITTER FOOD AND DRINK AND ASTRINGENCY-IMPROVING AGENT FOR ASTRINGENT FOOD AND DRINK” (priority 2009, published 2012).

How the values were obtained:
[1] = Bitterness evaluation of grapefruit juice (flavor comparison by 10 panelists); format: in vivo; conditions: for A: the number of panelists who felt no difference from 3-n-butylphthalide-free / B: the number of panelists who felt some reduction in bitterness / Flavor judgment: the number of panelists who judged it as most proper bitterness / N: the number of panelists who hardly felt bitterness: 10 panelists
Method: 3-n-Butylphthalide was added as a bitterness-improving agent (masking agent for bitterness) of the present invention to commercially available grapefruit juice at the concentrations shown in the following Table 2 to obtain grapefruit juice.

[2] = Bitterness evaluation of green tea drink (flavor comparison by 10 panelists); format: in vivo; conditions: for A: the number of panelists who felt no difference from sedanolide-free / B: the number of panelists who fell some reduction in bitterness / Flavor judgment: the number of panelists who judged it as most proper bitterness / N: the number of panelists who hardly felt bitterness: 10 panelists
Method: Five thousand grams of hot water (containing 0.03% of sodium ascorbate) of 60° C. was added to 100 g of Chinese green tea (second picking tea) produced by Josei (heat treatment by steaming), followed by extraction for 5 min while sometimes stirring. Subsequently, solid-liquid separation with flannel filter was performed to obtain 4500 g of an extract (Bx 0.6°). To the extract, 0.04 g of tannase (Kikkoman Corporation: 5000 U/g) was added. The resulting mixture was left to stand at 40° C. for 1 hour to decompose the gallate-type catechin to non-gallate-type catechin (gallate-type catechin has strong astringency, and non-gallate-type catechin has strong bitterness), followed by heating at 90° C. for 1 min to inactivate the enzyme. After cooling to 20° C., the extract was adjusted to Bx 0.5° with deionized water to obtain green tea extract having strong bitterness. Sedanolide was added as a taste-improving agent (masking agent for bitterness) of the present invention to the resulting extract at the concentrations shown in the following Table 3 to obtain green tea drinks.

[3] = 3-n-butylphthalide 0.01 ppb in grapefruit juice
[4] = 3-n-butylphthalide 0.01 ppm in grapefruit juice
[5] = 3-n-butylphthalide 0.1 ppb in grapefruit juice
[6] = 3-n-butylphthalide 0.1 ppm in grapefruit juice
[7] = 3-n-butylphthalide 1 ppb in grapefruit juice
[8] = 3-n-butylphthalide 1 ppm in grapefruit juice
[9] = 3-n-butylphthalide 1 ppt in grapefruit juice
[10] = 3-n-butylphthalide 10 ppm in grapefruit juice
[11] = sedanolide 0.01 ppb in green tea drink having strong bitterness
[12] = sedanolide 0.01 ppm in green tea drink having strong bitterness
[13] = sedanolide 0.1 ppb in green tea drink having strong bitterness
[14] = sedanolide 0.1 ppm in green tea drink having strong bitterness
[15] = sedanolide 1 ppb in green tea drink having strong bitterness
[16] = sedanolide 1 ppm in green tea drink having strong bitterness
[17] = sedanolide 1 ppt in green tea drink having strong bitterness
[18] = sedanolide 10 ppm in green tea drink having strong bitterness

For `CCCCC1OC(=O)c2ccccc21` (stereo not shown) [3-n-butylphthalide], the “A: the number of panelists who felt no difference from 3-n-butylphthalide-free” value [1, 3] was 7, the “B: the number of panelists who felt some reduction in bitterness” value [1, 3] was 2 and the “Flavor judgment: the number of panelists who judged it as most proper bitterness” value (shortened to “Flavor judgment: the number”) [1, 3] was 0. The “N: the number of panelists who hardly felt bitterness” value (“N: the number” for short) [1, 3] was 1, the “reduction in bitterness at low concentration” value ([1]; 3-n-butylphthalide 0.01 ppb, grapefruit juice) was “some panelists felt some reduction in bitterness” and the “A: the number of panelists who felt no difference from 3-n-butylphthalide-free” value [1, 4] was 2. For the same compound, the “B: the number of panelists who felt some reduction in bitterness” value [1, 4] was 6, the “Flavor judgment: the number” value [1, 4] was 2 and the “N: the number” value [1, 4] was 2. For the same compound, the “A: the number of panelists who felt no difference from 3-n-butylphthalide-free” value [1, 5] was 4, the “B: the number of panelists who felt some reduction in bitterness” value [1, 5] was 6 and the “Flavor judgment: the number” value [1, 5] was 0. The “N: the number” value [1, 5] was 0, the “A: the number of panelists who felt no difference from 3-n-butylphthalide-free” value [1, 6] was 0 and the “B: the number of panelists who felt some reduction in bitterness” value [1, 6] was 4. The “Flavor judgment: the number” value [1, 6] was 5, the “N: the number” value [1, 6] was 6 and the “A: the number of panelists who felt no difference from 3-n-butylphthalide-free” value [1, 7] was 3. For the same compound, the “B: the number of panelists who felt some reduction in bitterness” value [1, 7] was 7, the “Flavor judgment: the number” value [1, 7] was 0 and the “N: the number” value [1, 7] was 0. For the same compound, the “A: the number of panelists who felt no difference from 3-n-butylphthalide-free” value [1, 8] was 0, the “B: the number of panelists who felt some reduction in bitterness” value [1, 8] was 4 and the “Flavor judgment: the number” value [1, 8] was 3. For the same compound, the “N: the number” value [1, 8] was 6, the “A: the number of panelists who felt no difference from 3-n-butylphthalide-free” value [1, 9] was 9 and the “B: the number of panelists who felt some reduction in bitterness” value [1, 9] was 1. The “Flavor judgment: the number” value [1, 9] was 0, the “N: the number” value [1, 9] was 0 and the “A: the number of panelists who felt no difference from 3-n-butylphthalide-free” value [1, 10] was 0. The “B: the number of panelists who felt some reduction in bitterness” value [1, 10] was 3, the “Flavor judgment: the number” value [1, 10] was 0 and the “N: the number” value [1, 10] was 7. The “overall result of bitterness masking” value ([1]; amount of 3-n-butylphthalide about 0.1 ppb to 1 ppm, grapefruit juice) was “particularly good results were obtained” and the “bitterness of grapefruit juice (judgment)” value ([1]; grapefruit juice containing 0.01 ppb to 10 ppm of 3-n-butylphthalide) was “masked”.
For `CCCCC1OC(=O)C2=CCCCC21` (stereo not shown) [sedanolide], the “overall result of bitterness masking” value ([2]; amount of sedanolide about 0.1 ppb to 1 ppm, green tea drink) was “particularly good results were obtained”, the “bitterness of green tea drink (judgment)” value ([2]; green tea drink containing 0.01 ppb to 10 ppm of sedanolide) was “masked” and the “A: the number of panelists who felt no difference from sedanolide-free” value [2, 11] was 8. The “B: the number of panelists who fell some reduction in bitterness” value [2, 11] was 2, the “Flavor judgment: the number” value [2, 11] was 0 and the “N: the number” value [2, 11] was 0. For the same compound, the “reduction in bitterness at low concentration” value ([2]; sedanolide 0.01 ppb, green tea drink) was “some panelists felt some reduction in bitterness”, the “A: the number of panelists who felt no difference from sedanolide-free” value [2, 12] was 2 and the “B: the number of panelists who fell some reduction in bitterness” value [2, 12] was 6. The “Flavor judgment: the number” value [2, 12] was 2, the “N: the number” value [2, 12] was 2 and the “A: the number of panelists who felt no difference from sedanolide-free” value [2, 13] was 4. The “B: the number of panelists who fell some reduction in bitterness” value [2, 13] was 5, the “Flavor judgment: the number” value [2, 13] was 0 and the “N: the number” value [2, 13] was 1. For the same compound, the “A: the number of panelists who felt no difference from sedanolide-free” value [2, 14] was 0, the “B: the number of panelists who fell some reduction in bitterness” value [2, 14] was 5 and the “Flavor judgment: the number” value [2, 14] was 5. For the same compound, the “N: the number” value [2, 14] was 5, the “A: the number of panelists who felt no difference from sedanolide-free” value [2, 15] was 3 and the “B: the number of panelists who fell some reduction in bitterness” value [2, 15] was 6. The “Flavor judgment: the number” value [2, 15] was 0, the “N: the number” value [2, 15] was 1 and the “A: the number of panelists who felt no difference from sedanolide-free” value [2, 16] was 0. The “B: the number of panelists who fell some reduction in bitterness” value [2, 16] was 5, the “Flavor judgment: the number” value [2, 16] was 3 and the “N: the number” value [2, 16] was 5. The “A: the number of panelists who felt no difference from sedanolide-free” value [2, 17] was 10, the “B: the number of panelists who fell some reduction in bitterness” value [2, 17] was 0 and the “Flavor judgment: the number” value [2, 17] was 0. For the same compound, the “N: the number” value [2, 17] was 0, the “A: the number of panelists who felt no difference from sedanolide-free” value [2, 18] was 0 and the “B: the number of panelists who fell some reduction in bitterness” value [2, 18] was 5. For the same compound, the “Flavor judgment: the number” value [2, 18] was 0 and the “N: the number” value [2, 18] was 5.
